Test results published in the supplement of paper PMC4977894.
± gives the standard deviation of the averaged measurements.

Columns and labels:
[1] = tested on: Homo sapiens (human subject panel, olfactory perception); test: perceived odor familiarity rating (rating 0-100); higher = more familiar
Outline: (§1)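 Values for familiarity, intensity and pleasantness are averaged over subjects. The panel of 55 healthy people aged 18–50 excluded the six lowest performers and rated each paraffin-oil dilution of a molecule at high and low concentrations. Ratings were made only for stimuli the subject reported smelling, on a slider converted to a 0–100 scale.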

[2] = tested on: Homo sapiens (human subject panel, olfactory perception); test: perceived odor pleasantness rating (rating 0-100); higher = more pleasant
Outline: as §1

[3] = tested on: Homo sapiens (human subject panel, olfactory perception); test: perceived odor intensity rating (rating 0-100); higher = stronger perceived smell
Outline: as §1

[4] = odor dilution in paraffin oil: 1/10
[5] = odor dilution in paraffin oil: 1/1,000
[6] = odor dilution in paraffin oil: 1/100,000
[7] = odor dilution in paraffin oil: 1/10,000,000

Structure (SMILES) | perceived odor familiarity rating [1, 4] | perceived odor familiarity rating [1, 5] | perceived odor pleasantness rating [2, 4] | perceived odor pleasantness rating [2, 5] | perceived odor intensity rating [3, 4] | perceived odor intensity rating [3, 5] | perceived odor familiarity rating [1, 6] | perceived odor pleasantness rating [2, 6] | perceived odor intensity rating [3, 6] | perceived odor familiarity rating [1, 7] | perceived odor pleasantness rating [2, 7] | perceived odor intensity rating [3, 7]
CC1(C)CCC[C@]2(C)[C@H]3CCO[C@]3(C)CC[C@@H]12 [Ambrox] | 61 ± 27 | 60.9 ± 28 | 55.7 ± 27 | 62.8 ± 23 | 73.6 ± 23 | 50.1 ± 30 |  |  |  |  |  | 
OC[C@@H](O)[C@@H](O)[C@H](O)[C@@H](O)CO [D-Sorbitol] | 55.1 ± 31 | 44.6 ± 31 | 29.8 ± 27 | 45 ± 28 | 73.4 ± 22 | 39 ± 33 |  |  |  |  |  | 
c1ccc(CSSCc2ccccc2)cc1 [Benzyl disulfide] | 48.2 ± 34 | 49.1 ± 32 | 24.2 ± 25 | 26.8 ± 22 | 81.2 ± 20 | 63.6 ± 27 |  |  |  |  |  | 
CCCCCCC(=O)O [Heptanoic Acid] |  | 43.8 ± 31 |  | 21.5 ± 20 |  | 77.5 ± 23 | 36.5 ± 28 | 30.4 ± 25 | 49 ± 32 |  |  | 
C=CCc1ccc(OC)cc1 [4-Allylanisole] |  | 64.2 ± 28 |  | 60.8 ± 24 |  | 60.8 ± 26 | 28.7 ± 27 | 54.5 ± 24 | 22.3 ± 29 |  |  | 
CCCCCCCCCC(C)=O [2-Undecanone] | 49.5 ± 32 | 39.6 ± 30 | 43.3 ± 32 | 50.4 ± 22 | 79.4 ± 22 | 31.9 ± 28 |  |  |  |  |  | 
OC/C=C/c1ccccc1 [cinnamyl alcohol] |  | 52.6 ± 34 |  | 47.4 ± 31 |  | 75.8 ± 21 | 53.7 ± 33 | 42.9 ± 28 | 60.3 ± 28 |  |  | 
CCCCC(C)CCC(=O)O (racemic) [(±)-4-Methyloctanoic acid] | 41.7 ± 32 | 48.6 ± 30 | 27.4 ± 25 | 29 ± 20 | 72.5 ± 25 | 67.2 ± 25 |  |  |  |  |  | 
OCC(O)CO [glycerol] | 33.6 ± 28 | 31.8 ± 30 | 48.1 ± 31 | 42.7 ± 25 | 31.2 ± 33 | 26.8 ± 29 |  |  |  |  |  | 
CCOC(=O)CC(O)C(=O)OCC (stereo not given) [Diethyl malate] |  | 35.8 ± 28 |  | 41.4 ± 24 |  | 24.6 ± 25 | 22.1 ± 26 | 55.2 ± 19 | 12.6 ± 17 |  |  | 
CC(C)c1ccccc1O [2-Isopropylphenol] |  | 49 ± 34 |  | 28.8 ± 22 |  | 84.3 ± 14 | 36 ± 29 | 44.4 ± 20 | 38.8 ± 30 |  |  | 
CCCCCCCC=O [octanal] |  | 50.5 ± 31 |  | 33.1 ± 22 |  | 66.7 ± 26 | 62.9 ± 29 | 65 ± 25 | 55 ± 28 |  |  | 
O=C(Cc1ccccc1)OCc1ccccc1 [Benzyl phenylacetate] |  | 49.8 ± 32 |  | 31 ± 26 |  | 54.4 ± 30 | 37.3 ± 31 | 47 ± 20 | 37.4 ± 35 |  |  | 
CCCCCCCC(=O)OC [Methyl caprylate] |  | 46.9 ± 32 |  | 68.5 ± 23 |  | 47.9 ± 33 | 40.5 ± 26 | 50.1 ± 26 | 40.6 ± 29 |  |  | 
N[C@@H](CCC(=O)O)C(=O)O [L-Glutamic acid] | 34.7 ± 30 | 30.3 ± 31 | 37.1 ± 23 | 47.5 ± 26 | 52.7 ± 31 | 29.8 ± 27 |  |  |  |  |  | 
O=C1CCCCCN1 [epsilon-Caprolactam] | 31.2 ± 28 | 39.4 ± 35 | 46 ± 25 | 40.9 ± 26 | 30.6 ± 30 | 31.3 ± 33 |  |  |  |  |  | 
c1ccc(SSc2ccccc2)cc1 [Phenyl disulfide] |  | 47.2 ± 29 |  | 26.6 ± 23 |  | 61.2 ± 26 | 43.5 ± 29 | 28.3 ± 25 | 52.5 ± 30 |  |  | 
CCCCCC(O)CC (stereo not given) [3-Octanol] |  | 45.5 ± 29 |  | 38.2 ± 25 |  | 72 ± 23 | 35.9 ± 28 | 49.5 ± 18 | 26.9 ± 25 |  |  | 

Structure (SMILES) | perceived odor familiarity rating [1, 4] | perceived odor familiarity rating [1, 5] | perceived odor pleasantness rating [2, 4] | perceived odor pleasantness rating [2, 5] | perceived odor intensity rating [3, 4] | perceived odor intensity rating [3, 5] | perceived odor familiarity rating [1, 6] | perceived odor pleasantness rating [2, 6] | perceived odor intensity rating [3, 6] | perceived odor familiarity rating [1, 7] | perceived odor pleasantness rating [2, 7] | perceived odor intensity rating [3, 7]
c1ccsc1 [Thiophene] |  | 39.3 ± 29 |  | 28.7 ± 20 |  | 32.8 ± 34 | 43.1 ± 30 | 40.8 ± 24 | 39.5 ± 30 |  |  | 
Cc1cccc(C)n1 [2,6-Dimethylpyridine] |  | 47.3 ± 32 |  | 29.8 ± 24 |  | 78.1 ± 20 | 42.5 ± 31 | 35.3 ± 23 | 54.1 ± 32 |  |  | 
CC(C)CCOC(=O)/C=C/c1ccccc1 [Isoamyl cinnamate] |  | 25.2 ± 25 |  | 38.8 ± 23 |  | 18.9 ± 23 | 40.7 ± 32 | 56.7 ± 24 | 22.5 ± 26 |  |  | 
CSSSC [Dimethyl trisulfide] |  |  |  |  |  |  | 52.5 ± 34 | 22.3 ± 24 | 77.6 ± 23 | 49.1 ± 34 | 28.1 ± 25 | 63 ± 28
Nc1ccccc1C(=O)OCCc1ccccc1 [Phenethyl anthranilate] | 50.1 ± 32 | 27.7 ± 23 | 56.9 ± 24 | 48.2 ± 19 | 39.9 ± 32 | 15.1 ± 20 |  |  |  |  |  | 
C=C(C)C1CC=C(C)C(OC(C)=O)C1 (stereo not given) [carvyl acetate] |  | 43.5 ± 32 |  | 27.2 ± 22 |  | 75 ± 25 | 37.2 ± 30 | 44.1 ± 23 | 38.6 ± 33 |  |  | 
CC(C)CCS [3-Methyl-1-butanethiol] |  |  |  |  |  |  | 54.6 ± 34 | 13.3 ± 18 | 88.3 ± 14 | 46.5 ± 29 | 32 ± 26 | 54.1 ± 30
IC(I)I [Iodoform] | 52.6 ± 33 | 51.2 ± 29 | 30.7 ± 26 | 36.4 ± 22 | 84.4 ± 16 | 68.4 ± 23 |  |  |  |  |  | 
CC=Cc1ccc(OC(=O)Cc2ccccc2)c(OC)c1 [Isoeugenyl phenylacetate] |  | 68 ± 29 |  | 56.2 ± 32 |  | 78.7 ± 18 | 55.8 ± 30 | 59.7 ± 26 | 42.4 ± 32 |  |  | 
CCCSCCC [propyl sulfide] |  |  |  |  |  |  | 29.4 ± 28 | 44.5 ± 28 | 28.1 ± 31 | 34.7 ± 38 | 40.7 ± 25 | 11.6 ± 12
CC(C)C=O [Isobutyraldehyde] |  | 43.1 ± 29 |  | 24.3 ± 22 |  | 77.5 ± 24 | 39 ± 31 | 27.3 ± 19 | 61.6 ± 28 |  |  | 
CCCCCCCCCCCC(=O)O [Lauric acid (replicate)] | 50.6 ± 32 | 34.1 ± 27 | 28.8 ± 22 | 35.4 ± 22 | 72.2 ± 25 | 36 ± 32 |  |  |  |  |  | 
CS(C)(=O)=O [Methyl sulfone] | 51.6 ± 29 | 39.4 ± 28 | 61.1 ± 24 | 47.6 ± 20 | 42.4 ± 32 | 22.7 ± 25 |  |  |  |  |  | 
CC(C)C(=O)OCCOc1ccccc1 [2-Phenoxyethyl isobutyrate] | 44 ± 30 | 30.3 ± 31 | 43.8 ± 22 | 55.1 ± 26 | 58.7 ± 26 | 27.5 ± 29 |  |  |  |  |  | 
CC(=O)OCc1ccccc1 [benzyl acetate] |  | 52.3 ± 33 |  | 60.4 ± 25 |  | 65.8 ± 29 | 42.3 ± 27 | 54.7 ± 20 | 36.3 ± 28 |  |  | 
CCCCOC(=O)CC [Butyl Propionate] |  | 50.6 ± 30 |  | 54.6 ± 26 |  | 62 ± 25 | 31.9 ± 33 | 46.5 ± 25 | 18 ± 25 |  |  | 
C/C(=C\CO)CCC[C@H](C)CCC[C@H](C)CCCC(C)C [Phytol] | 47.1 ± 32 | 25.4 ± 33 | 28.1 ± 21 | 44.2 ± 30 | 68.8 ± 26 | 19.8 ± 26 |  |  |  |  |  | 
